Starred links: 1 amine or outer side, 2 acyl side, 3 side chain; linkers in the order of their positions; H or OH if unused. Non-standard residues stand in square brackets, D forms with d. Residues, ends and D or L forms follow the SMILES beside them. X1 = CC(C)C[C@H](N[*:1])[C@@H](O)C[C@H](C(=O)[*:2])C(C)C
Molecular target: Human immunodeficiency virus type 1 protease (Human immunodeficiency virus 1, UniProt Q72874)
Assay: Binding affinity against HIV-1 aspartic proteinase was determined

Compound	Ki
CCCC[C@@H](CN[C@@H](CCCC)C(=O)N[C@@H](CCC(N)=O)C(=O)N[C@@H](CCCNC(=N)N)C(N)=O)NC(=O)[C@@H](NC(=O)[C@@H](NC(C)=O)[C@@H](C)O)[C@@H](C)CC	780 nM
CC[C@H](C)[C@H](NC(=O)[C@@H](C[C@H](O)[C@H](CC(C)C)NC(=O)[C@H](CC(N)=O)NC(=O)[C@H](CCC(N)=O)NC(=O)[C@H](CO)NC(=O)[C@@H](N)C(C)C)C(C)C)C(=O)N[C@H](C(=O)O)C(C)C (H-VSQN[X1]IV-OH)	< 1 nM
